{"source": "patent US20230338363A1", "about": "“COMBINATION CHEMO-IMMUNOTHERAPY FOR PANCREATIC CANCER USING THE IMMUNOGENIC EFFECTS OF AN IRINOTECAN SILICASOME NANOCARRIER PLUS ANTI-PD-1” (The Regents of the University of California, priority 2020, published 2023)", "key": {"orthotopic KPC tumor": {"system": "orthotopic KPC tumor", "assay": "Survival experiment, IRIN silicasome plus anti-PD-1 in orthotopic KPC tumor model", "type": "in vivo, mouse", "description": "Panel A) Explanation of the KPC model, including orthotopic implant in the pancreas and technical development of the primary tumor and metastases that can be followed by IVIS imaging. Animals were sacrificed according to the moribund criteria shown. Panel B). Details of the survival experiment in tumor-bearing mice (n = 5-7), which were treated with free IRIN or the silicasome at an IRIN dose equivalent of 40 mg/kg IV every 3- or 4-days, with or without IP administration of 100 µg anti-PD-1 antibody, for a total of six administrations. Please notice that the antibody was administered two days after IRIN injection. Saline and anti-PD-1 antibody alone were used as controls. Kaplan-Meier plots were used to display the survival rate of the different animal groups (*p<0.05, Log Rank test).\nThe KPC-derived orthotopic tumor model in immunocompetent B6129SF1/J mouse was established as described in FIG. 4, panel A. ^[16] Briefly, 30 µL of DMEM/Matrigel (1:1 v/v), containing ~1×10^6 KPC-luc cells, was injected into the tail of the pancreas in female B6129SF1/J mice (8~10 weeks) by a short survival surgery procedure.^[16] In the first survival experiment (FIG. 4, panel B), tumor-bearing mice were randomly assigned into 6 groups (n = 5-7) and received IV injection of the IRIN formulations at API dose of 40 mg/kg. Anti-PD-1 antibody was injected at 100 µg/animal IP. To assess survival rate, animals were monitored daily up to the stage of spontaneous death or approaching moribund status (defined in FIG. 4, panel A)^[16, 36]. The survival data were plotted as Kaplan-Meier curves, followed by data analysis to derive mean survival time. Statistical analysis and p values were obtained by Log Rank testing (Mantel-Cox), using GraphPad Prism 7.00 software."}, "KPC tumor": {"system": "KPC tumor", "assay": "Vaccination experiment with dying chemo-treated KPC cells", "type": "in vivo, mouse", "description": "The vaccination schedule is highlighted in FIG. 2, panel C. Eight million KPC cells were seeded in a tissue culture dish. After cellular attachment, IRIN (300 µM or OX (500 µM were added for 24 h. Cells were collected and washed before resuspended in 0.8 mL cold PBS. For vaccination, each mouse received subcutaneous (SC) injection of a 100 µL suspension of chemo-treated cells in the right flank. Control animals received SC injection with 0.1 mL PBS. The vaccination was repeated after 7 days. Fourteen days after the 1st injection, the animals received SC injection of normal KPC cells (1 million cells in 0.1 mL PBS) in the contralateral (left) flank. Tumor growth was measured by a digital caliper every 2-3 days, and the tumor volume calculated according to the formula: length × width^2 /2. Animals were sacrificed on day 26 and the tumors were collected, weighed and fixed in 10% formalin, followed by paraffin embedding and sectioning to derive to 4 µm thick slices for IHC analysis. Primary antibodies to CD8 (#14-0808-82) and FoxP3 (#13-5773-82) were purchased from ThermoFisher. IHC staining was performed in the UCLA Translational Pathology Core Laboratory (TPCL). The slides were scanned and images assessed by using Aperio ImageScope software (Leica)."}, "KPC cells": {"system": "KPC cells", "assay": "Autophagy (LC3B, p62) and PD-L1 expression by IF staining and immunoblotting", "type": "cell-based, mouse", "description": "KPC cells were seeded in the µ-Slide 8 well. After cell attachment, the cells were treated by IRIN at 300 µM for 24 h. Control treatments included exposure to PBS, chloroquine (32 µM), rapamycin (100 nM) and IFN-γ (10 ng/ml). Before IF staining, the cells were washed with PBS and fixed with 4% paraformaldehyde at RT for 15 minutes. Cells were treated in 1% BSA (blocking reagent) plus 0.2% triton-X100 in PBS for 30 minutes. Subsequently, the cells were incubated with primary antibody that recognizes LC3B (Cell Signaling #2775, 1:200) or p62/SQSTM1 (Cell Signaling #23214, 1:800) in 1% BSA containing PBS solution at 4° C. overnight. The sample was washed twice in PBS and further stained using an Alexa Fluor® 488 conjugated goat anti-rabbit secondary antibody (Thermo Fisher, A-11008, 1:1000) and 5 µg/mL Hoechst 33342 dye for 1 h. Cell surface staining for PD-L1 assessment was carried out in fixed (4% paraformaldehyde) cells, using a staining process similar to the above protocol. Primary PD-L1 antibody (Abcam, ab213480, 1: 500) and Alexa Fluor® 594 conjugated goat anti-rabbit secondary antibody (Thermo Fisher, A-11012, 1:1000) were used. The cells were visualized using a Leica SP8-MD confocal microscope under the 100x objective lens.\nTo confirm the confocal staining results for LC3B, p62 and PD-L1, western blotting experiments were performed in KPC cells exposed to IRIN (300 µM) or OX (500 µM) for 24 hr. Another experiment also looked at the dose-dependent effect of IRIN at concentrations of 75, 150, 300 and 600 µM for 24 h. Briefly, ~2×10^5 KPC cells per well were seeded in 6 well-plates. After drug exposure, KPC cells were harvested and treated with cold RIPA lysis buffer (Cell Signaling # 9806S), supplemented with a cocktail of protease and phosphatase inhibitors (Cell Signaling #5872) and incubated on ice for 30 mins. After centrifugation of the lysates at 12,000 rpm for 10 min, protein concentration was quantified by a Bradford assay (Biorad). Equal amounts of protein in the supernatants were loaded onto a 10-20% Tris-glycine SDS-PAGE gel (Invitrogen, Grand Island, NY). The proteins were subsequently transferred to a PVDF membrane. The membrane was blocked with 5% non-fat dry milk/TBST, before incubation with primary and HRP-conjugated secondary antibodies. The primary antibodies included: LC3B (Cell Signaling #2775), p62/SQSTM1 (Cell Signaling #5114), NF-κB p65 (Cell Signaling #8242), Phospho-NF-xB p65 (Cell Signaling #3033) and PD-L1 (Abcam, ab213480). The blots were developed by soaking in ECL substrate (Thermo Fisher Scientific). Densitometric analysis of each protein band on the film was quantified by ImageJ software and normalized to the intensity of a corresponding housekeeping protein.\nThe of the IRIN silicasome on lysosomal alkalization was performed at drug concentrations of 75 µM and 300 µM in KPC cells. Empty silicasomes (in which a 500 µg/mL particle dose is representative of an encapsulated IRIN dose of 300 µM) was included as control. The assessment of LC3B, p62 and PD-L1 immunoblotting and IF staining were performed in KPC cells during treatment with the IRIN silicasome or empty silicasomes, as described for the free drug."}}, "note": "Structures can show the parent of a compound that is named as a salt.", "data": [{"smiles": "CCc1c2c(nc3ccc(OC(=O)N4CCC(N5CCCCC5)CC4)cc13)-c1cc3c(c(=O)n1C2)COC(=O)[C@]3(O)CC", "note": "[IRIN, Irinotecan hydrochloride trihydrate]", "values": [{"measurement": "MST (median survival time)", "setting": "orthotopic KPC tumor; IRIN 40 mg/kg IV, anti-PD-1 100 µg IP, six administrations, saline 19", "value": 19, "unit": "days"}, {"measurement": "survival (Kaplan-Meier, Log Rank test)", "setting": "orthotopic KPC tumor; IRIN 40 mg/kg IV, anti-PD-1 100 µg/mouse IP", "value": "no survival benefits"}, {"measurement": "% ILS (% increase in life span, [(T - C)/C] × 100)", "setting": "orthotopic KPC tumor; vs. saline", "value": 0.0, "unit": "%"}, {"measurement": "growth of tumor on the opposite flank vs PBS control", "setting": "KPC tumor; KPC cells treated with 300 µM IRIN or 500 µM OX, p <0.05", "value": "improved the shrinkage of the tumor on the opposite flank significantly"}, {"measurement": "tumor disappearance at harvesting", "setting": "KPC tumor; day 26", "value": "total tumor disappearance in one IRIN-treated animal"}, {"measurement": "CD8+ staining number (IHC)", "setting": "KPC tumor; harvested tumors, day 26", "value": "no significant increase"}, {"measurement": "CD8+/Treg cells ratio (IHC)", "setting": "KPC tumor; harvested tumors, day 26", "value": "significantly (p <0.01) increased"}, {"measurement": "FoxP3+ expression (IHC)", "setting": "KPC tumor; harvested tumors, day 26", "value": "significantly (p<0.01) decreased"}, {"measurement": "IF staining of LC3B and p62/SQSTM1 complexes", "setting": "KPC cells; 24 h, IRIN 300 µM, CQ 32 µM, RAP 100 nM", "value": "contemporaneous appearance of fluorescent LC3B puncta as well as p62 protein complexes"}, {"measurement": "PD-L1 expression", "setting": "KPC cells; IRIN 300 µM or OX 500 µM, 24 h", "value": "robust cell surface expression of PD-L1"}, {"measurement": "autophagy flux (Western blotting of LC3 and p62)", "setting": "KPC cells; IRIN 300 µM or OX 500 µM, 24 h", "value": "inhibited autophagy flux"}, {"measurement": "phosphorylation of p65 NF-κB subunit", "setting": "KPC cells; IRIN 300 µM, 24 hrs", "value": "induce the phosphorylation of the p65 (p-p65) subunit of NF-κB"}, {"measurement": "ratio of LC3-II vs. LC3-I expression (immunoblotting)", "setting": "KPC cells; IRIN 75-600 µM, 24 h", "value": "dose-dependent increase"}]}]}
